Data on two substances can be found in patent US20200354426A1 (MEDIMMUNE LIMITED, priority 2016, published 2020).

Values joined by “and” are separate entries in the source; they are usually repeats but may differ in a detail not shown here. Equal entries are not always repeated.

Holding throughout (conditions): 37° C., up to 48 hours
Data set [1] in a line: rat plasma (frozen blank plasma, thawed).
A short description of data set [2]: human plasma (frozen blank plasma, thawed).
Data set [3] can be described thus: mouse plasma (frozen blank plasma, thawed).

With “HSQGTFTSDXSRYLDSRSARDFVAWLEAGG-amide ×10 = K(gE-palm)”, the fragment found result in data set [1] and in data set [3] was “DPP cleaved product” each time. The not cleaved in data set [2] came to 100% stable peptide at 24 h.
With “HSQGTFTSDYSKXLDSERARDFVAWLVAGG-amide ×13 = K(gE-palm)”, the fragment found result in data set [1] is “DPP cleaved product”; in data set [3], “DPP cleaved product and +1 DPP cleaved product”. The not cleaved in data set [2] was 100% stable peptide at 24 h.
